From patent publication US8716281B2, “Pyrimidine compounds that inhibit anaplastic lymphoma kinase” (Amgen Inc., priority 2010, dated 2014)

What follows are compounds tested against T1, wild-type human ALK cytoplasmic domain (amino acids 1058-1620) (Homo sapiens, UniProt Q9UM73) (assay: ALK Inhibition in Enzyme Assay (Lance TR-FRET)). Conditions: not given.
T1 construct: The cytoplasmic domain (amino acids 1058-1620) of wild-type human ALK; GST (N); made in house; host or cells: SF9 insect cells
Type: biochemical
Description: ALK Inhibition in Enzyme Assay
Kinase activity of the purified protein was assessed using a Lance® TR-FRET assay. […] The reaction was allowed to proceed for 90 minutes at room temperature and was then terminated with 20 mM EDTA in 50 mM Tris (pH 7.5), 100 mM NaCl, 0.05% BSA, and 0.1% Tween-20. Phosphorylation of the peptide substrate was detected using the Lance® detection reagents streptavidin-allophycocyanin (SA-APC) and Eu-W1024 anti-phosphotyrosine antibody (PT66) from Perkin Elmer Life Sciences (Waltham, Mass.). The plates were read on a RUBY star plate reader (BMG LABTECH, Cary, N.C.) with an excitation wavelength of 320 nm.

T1 sequence (Q9UM73 1058-1620): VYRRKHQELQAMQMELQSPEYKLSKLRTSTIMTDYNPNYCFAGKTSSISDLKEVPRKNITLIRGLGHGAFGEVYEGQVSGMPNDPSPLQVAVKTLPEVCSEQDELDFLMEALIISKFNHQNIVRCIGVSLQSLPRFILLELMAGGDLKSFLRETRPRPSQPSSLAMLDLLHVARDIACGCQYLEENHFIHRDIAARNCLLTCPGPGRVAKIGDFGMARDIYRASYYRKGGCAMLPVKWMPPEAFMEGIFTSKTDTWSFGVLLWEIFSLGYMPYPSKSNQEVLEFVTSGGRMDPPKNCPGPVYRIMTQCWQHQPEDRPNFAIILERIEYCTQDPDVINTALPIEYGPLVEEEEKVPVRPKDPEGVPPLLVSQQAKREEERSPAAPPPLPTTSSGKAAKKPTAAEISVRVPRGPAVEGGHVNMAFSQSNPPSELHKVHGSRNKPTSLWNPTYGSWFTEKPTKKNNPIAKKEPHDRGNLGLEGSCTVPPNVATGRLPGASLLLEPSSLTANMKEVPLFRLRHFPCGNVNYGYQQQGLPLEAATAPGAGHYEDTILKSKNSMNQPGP

| Compound | IC50 [nM] |
| --- | --- |
| COc1cc(Nc2nccc(N3CCC[C@H](C(=O)NCCCc4ccccc4)C3)n2)cc(OC)c1OC [Example 126, (S)-N-(3-phenylpropyl)-1-(2-((3,4,5-trimethoxyphenyl)amino)-4-pyrimidinyl)-3-piperidinecarboxamide] | 5000 to 10000 |

Same assay, conditions: 2 nM enzyme, ATP at 40 μM (Km apparent), 90 minutes, mean of three replicates; read-out: ALK IC50

| Compound | IC50 [nM] |
| --- | --- |
| COc1cc(Nc2nccc(N3CCC[C@H](C(=O)NC(c4ccccc4)C(F)(F)F)C3)n2)cc(OC)c1OC (stereo partly drawn) [Example 30, (S)-N-(2,2,2-trifluoro-1-phenylethyl)-1-(2-((3,4,5-trimethoxyphenyl)amino)-4-pyrimidinyl)-3-piperidinecarboxamide] | 1000 to 5000 |
| COc1cc(Nc2nccc(N3CCC[C@H](C(=O)NC(C)c4ccc(C)cc4)C3)n2)cc(OC)c1OC (stereo partly drawn) [Example 55, (S)-N-(1-(4-methylphenyl)ethyl)-1-(2-((3,4,5-trimethoxyphenyl)amino)-4-pyrimidinyl)-3-piperidinecarboxamide] | 100 to 1000 |
| COc1cc(Nc2nccc(N3CCC[C@H](C(=O)NCc4ccc5c(c4)OCCO5)C3)n2)cc(OC)c1OC [Example 77, (S)-N-(2,3-dihydro-1,4-benzodioxin-6-ylmethyl)-1-(2-((3,4,5-trimethoxyphenyl)amino)-4-pyrimidinyl)-3-piperidinecarboxamide] | 1000 to 5000 |
| COc1cc(Nc2nccc(N3CCC[C@H](C(=O)NCc4ccc(Oc5ccc(F)cc5)cc4)C3)n2)cc(OC)c1OC [Example 72, (S)-N-(4-(4-fluorophenoxy)benzyl)-1-(2-((3,4,5-trimethoxyphenyl)amino)-4-pyrimidinyl)-3-piperidinecarboxamide] | 100 to 1000 |
| COc1cc(Nc2nccc(N3CCC[C@H](C(=O)NCCc4ccccc4F)C3)n2)cc(OC)c1OC [Example 102, (S)-N-(2-(2-fluorophenyl)ethyl)-1-(2-((3,4,5-trimethoxyphenyl)amino)-4-pyrimidinyl)-3-piperidinecarboxamide] | 100 to 1000 |
| CCN(CC)CCNC(=O)c1ccc(Nc2nccc(N3CCC[C@H](C(=O)NCc4ccc(C)cc4)C3)n2)cc1 [Example 187, (S)-1-(2-(4-(2-(diethylamino)ethylcarba-moyl)phenylamino)pyri-midin-4-yl)-N-(4-methylbenzyl)piperidine-3-carboxamide] | 100 to 1000 |
| COc1cc(F)cc(Nc2nccc(N3CCC[C@H](C(=O)NCc4ccc(C)cc4)C3)n2)c1 [Example 169, (3S)-1-(2-((3-fluoro-5-methoxyphenyl)amino)-4-pyrimidinyl)-N-(4-methylbenzyl)-3-piperidinecarboxamide] | 100 to 1000 |
| Cc1ccc(CNC(=O)[C@H]2CCCN(c3ccnc(Nc4cccc(OC(C)C)c4)n3)C2)cc1 [Example 160, (3S)-N-(4-methylbenzyl)-1-(2-((3-(1-methylethoxy)phenyl)amino)-4-pyrimidinyl)-3-piperidinecarboxamide] | 100 to 1000 |
| COc1cc(Nc2nccc(N3CCC[C@H](C(=O)NCc4ccc(Oc5ccccc5)cc4)C3)n2)cc(OC)c1OC [Example 116, (S)-N-(4-phenoxybenzyl)-1-(2-((3,4,5-trimethoxyphenyl)amino)-4-pyrimidinyl)-3-piperidinecarboxamide] | 50 to 100 |
| COc1cc(Nc2nccc(N3CCC[C@H](C(=O)NCc4ccc(Oc5ccc(C)cc5)cc4)C3)n2)cc(OC)c1OC [Example 119, (S)-N-(4-(4-methylphenoxy)benzyl)-1-(2-((3,4,5-trimethoxyphenyl)amino)-4-pyrimidinyl)-3-piperidinecarboxamide] | 100 to 1000 |
| Cc1ccc(CNC(=O)[C@H]2CCCN(c3ccnc(Nc4ccc(-n5cncn5)cc4)n3)C2)cc1 [Example 191, (S)-1-(2-(4-(1H-1,2,4-triazol-1-yl)phenylamino)pyrimidin-4-yl)-N-(4-methylbenzyl)piperidine-3-carboxamide] | 1000 to 5000 |
| COc1cc(Nc2nccc(N3CCC[C@H](C(=O)NCc4ccc5c(c4)CCO5)C3)n2)cc(OC)c1OC [Example 44, (S)-N-(2,3-dihydro-1-bcnzofuran-5-ylmethyl)-1-(2-((3,4,5-trimethoxyphenyl)amino)-4-pyrimidinyl)-3-piperidinecarboxamide] | 100 to 1000 |
| COc1cc(Nc2nccc(N3CCC[C@H](C(=O)NCCc4cccc(F)c4)C3)n2)cc(OC)c1OC [Example 95, (S)-N-(2-(3-fluorophenyl)ethyl)-1-(2-((3,4,5-trimethoxyphenyl)amino)-4-pyrimidinyl)-3-piperidinecarboxamide] | 100 to 1000 |
| Cc1ccc(CNC(=O)[C@H]2CCCN(c3ccnc(Nc4cccc(S(N)(=O)=O)c4)n3)C2)cc1 [Example 151, (3S)-N-(4-methylbenzyl)-1-(2-((3-sulfamoylphenyl)amino)-4-pyrimidinyl)-3-piperidinecarboxamide] | 100 to 1000 |
| COc1cc(Nc2nccc(N3CCC[C@H](C(=O)NC[C@H](C)c4ccccc4)C3)n2)cc(OC)c1OC [Example 101, (S)-N-((R)-2-phenylpropyl)-1-(2-((3,4,5-trimethoxyphenyl)amino)-4-pyrimidinyl)-3-piperidinecarboxamide] | 1000 to 5000 |
| COc1cc(Nc2nccc(N3CCC[C@H](C(=O)NCCc4ccccc4Cl)C3)n2)cc(OC)c1OC [Example 99, (S)-N-(2-(2-chlorophenyl)ethyl)-1-(2-((3,4,5-trimethoxyphenyl)amino)-4-pyrimidinyl)-3-piperidinecarboxamide] | 1000 to 5000 |
| COc1cc(Nc2nccc(N3CCC[C@H](C(=O)N[C@@H](C)c4ccc(Br)cc4)C3)n2)cc(OC)c1OC [Example 27, (S)-N-((S)-1-(4-bromophenyl)ethyl)-1-(2-((3,4,5-trimethoxyphenyl)amino)-4-pyrimidinyl)-3-piperidinecarboxamide] | 100 to 1000 |
| COc1cc(Nc2nccc(N3CCC[C@H](C(=O)NCCc4cn5ccccc5n4)C3)n2)cc(OC)c1OC [Example 61, (S)-N-(2-imidazo[1,2-a]pyridin-2-ylethyl)-1-(2-((3,4,5-trimethoxyphenyl)amino)-4-pyrimidinyl)-3-piperidinecarboxamide] | 5000 to 10000 |
| Cc1ccc(CNC(=O)[C@H]2CCCN(c3ccnc(Nc4cccc(C(C)(C)C)c4)n3)C2)cc1 [Example 181, (3S)-1-(2-((3-tert-butylphenyl)amino)-4-pyrimidinyl)-N-(4-methylbenzyl)-3-piperidinecarboxamide] | 100 to 1000 |
| CCOc1ccc(Nc2nccc(N3CCC[C@H](C(=O)NCc4ccc(C)cc4)C3)n2)cc1 [Example 192, (S)-1-(2-(4-ethoxyphenylamino)pyrimidin-4-yl)-N-(4-methylbenzyl)piperidine-3-carboxamide] | 1000 to 5000 |
| COc1cc(Nc2nccc(N3CCC[C@H](C(=O)NCc4ccc(-c5ccccc5Cl)cc4)C3)n2)cc(OC)c1OC [Example 121, (S)-N-((2′-chloro-4-biphenylyl)methyl)-1-(2-((3,4,5-trimethoxyphenyl)amino)-4-pyrimidinyl)-3-piperidinecarboxamide] | 100 to 1000 |
| COc1cc(Nc2ncc(Cl)c(N3CCC[C@H](C(=O)NCc4ccc(C)cc4)C3)n2)cc(OC)c1OC [Example 10, (S)-1-(5-Chloro-2-(3,4,5-Trimethoxyphenyl-Amino)Pyrimidin-4-Yl)-N-(4-Methylbenzyl)Piperidine-3-Carboxamide] | 100 to 1000 |
| Cc1ccc(CNC(=O)[C@H]2CCCN(c3ccnc(Nc4cccc(OC(F)(F)F)c4)n3)C2)cc1 [Example 164, (3S)-N-(4-methylbenzyl)-1-(2-((3-(trifluoromethoxy)phenyl)amino)-4-pyrimidinyl)-3-piperidinecarboxamide] | 1000 to 5000 |
| COc1ccccc1Nc1nccc(N2CCC[C@H](C(=O)NCc3ccc(C)cc3)C2)n1 [Example 133, (3S)-1-(2-((2-methoxyphenyl)amino)-4-pyrimidinyl)-N-(4-methylbenzyl)-3-piperidinecarboxamide] | 1000 to 5000 |
| COc1cc(Nc2nccc(N3CCC[C@H](C(=O)NCCc4cccc(C(F)(F)F)c4)C3)n2)cc(OC)c1OC [Example 96, (S)-N-(2-(3-(trifluoromethyl)phenyl)ethyl)-1-(2-((3,4,5-trimethoxyphenyl)amino)-4-pyrimidinyl)-3-piperidinecarboxamide] | < 50 |
| Cc1ccc(CNC(=O)[C@H]2CCCN(c3ccnc(Nc4cc(C)cc(C)c4)n3)C2)cc1 [Example 155, (3S)-1-(2-((3,5-dimethylphenyl)amino)-4-pyrimidinyl)-N-(4-methylbenzyl)-3-piperidinecarboxamide] | 1000 to 5000 |
| COc1ccc(CNC(=O)[C@H]2CCCN(c3ccnc(Nc4cc(OC)c(OC)c(OC)c4)n3)C2)cc1OC [Example 66, (S)-N-(3,4-dimethoxybenzyl)-1-(2-((3,4,5-trimethoxyphenyl)amino)-4-pyrimidinyl)-3-piperidinecarboxamide] | 1000 to 5000 |
| COc1cc(Nc2nccc(N3CCC[C@H](C(=O)NCc4ccc(F)cc4F)C3)n2)cc(OC)c1OC [Example 57, (S)-N-(2,4-difluorobenzyl)-1-(2-((3,4,5-trimethoxyphenyl)amino)-4-pyrimidinyl)-3-piperidinecarboxamide] | 50 to 100 |
| COc1cc(Nc2nccc(N3CCC[C@H](C(=O)NCc4cccc(OC(F)F)c4)C3)n2)cc(OC)c1OC [Example 79, (S)-N-(3-(difluoromethoxy)benzyl)-1-(2-((3,4,5-trimethoxyphenyl)amino)-4-pyrimidinyl)-3-piperidinecarboxamide] | < 50 |
| COc1cc(Nc2nccc(N3CCC[C@H](C(=O)NCCc4ccc(F)cc4)C3)n2)cc(OC)c1OC [Example 100, (S)-N-(2-(4-fluorophenyl)ethyl)-1-(2-((3,4,5-trimethoxyphenyl)amino)-4-pyrimidinyl)-3-piperidinecarboxamide] | 100 to 1000 |
